# Experimental data published in patent US6727240B1, “Methods for preventing HIV-1 or HIV-2 infection” (New York Blood Center, Inc., priority 1993, dated 2004).
# Key:
# MT-2 cells = test: Cytotoxic effect in the absence of HIV-1 (lysis of uninfected cells); assay type: cell-based
# [1] = system: V3 hypervariable loop peptides from gp120 from 21 distinct HIV-1 isolates; test: ELISA: reaction of V3 hypervariable loop peptides with homologous anti-peptide antisera; assay type: binding; details: rabbit antisera diluted 1:1,000; FIG. 2
# Description: (§1) The inhibitory effect of PTP-IX and its metal derivatives on binding to gp120 of monoclonal antibodies (mAbs) specific for the V3 loop or for the CD4 binding site was measured by ELISA tests using as second antibodies horseradish peroxidase (HRP) labeled anti-mouse IgG.
# Sn-PTP-IX was also tested for inhibition of the reaction between V3 hypervariable loop peptides from 21 distinct HIV-1 isolates and the corresponding homologous antipeptide antibodies. […] With respect of FIG. 2, peptide coated wells of polystyrene plates were reacted in the presence and absence of the porphyrin derivative with the respective rabbit antisera diluted 1:1,000, and the attachment of rabbit IgG was subsequently determined using horseradish peroxidase labeled anti-rabbit IgG.
# (§2) The inhibitory effect of PTP-IX and its metal complexes on the reaction between antibodies of distinct specificities and gp120 (or synthetic peptides derived from it) was calculated by the following formula: [formula]
# [2] = biological target: T1, CD4 binding site of gp120 (recombinant gp120) (Human immunodeficiency virus type 1 group M subtype B, UniProt P03375); test: ELISA: binding of mAb 588D to gp120-coated wells; parameters: species or system HIV-1; details: mAb 588D 200 ng/well; FIG. 3
# T1 construct: recombinant gp120 produced insect cells infected with a baculovirus vector; host or cells: insect cells infected with a baculovirus vector
# Description: as §1
# The inhibitory effect of Sn-PTP-IX on the reaction between gp120 and mAb specific for the CD4 binding site on gp120 was also investigated. For this purpose, mAb 588D (obtained from the AIDS Research and Reagent Reference Program and from Dr. S. Zolla-Pazner of New York Veterans Affairs Medical Center) was used.
# as §2
# [3] = system: deletion mutant of gp120 lacking the V3 loop sequence; test: Binding of CD4-binding-site mAbs to gp120 deletion mutant; parameters: species or system HIV-1
# [4] = versus Sn-PTP-IX; cited from earlier work
Molecule,S.I. = selectivity index = CD50/ED50 (toxicity/activity) (HIV-1),CD50 = concentration at which 50% of uninfected cells were lysed (MT-2 cells) [µg/mL],other results
C=Cc1c(C)c2cc3[nH]c(cc4nc(cc5nc(cc1[nH]2)C(C)=C5CCC(=O)[O-])C(CCC(=O)[O-])=C4C)c(C)c3C=C.[Co+2] [Co-Protoporphyrin IX],>6.2,–,–
C=CC1=C(C)c2cc3[n-]c(cc4[n-]c(cc5nc(cc1n2)C(C)=C5C=C)c(C)c4CCC(=O)O)c(CCC(=O)O)c3C.[Mn+2] [Mn-Protoporphyrin IX],>2.8,>80,–
C=CC1=C(C)c2cc3[nH]c(cc4nc(cc5[nH]c(cc1n2)c(C)c5CCC(=O)O)C(CCC(=O)O)=C4C)c(C)c3C=C [Protoporphyrin IX],7.3,–,–
"C=Cc1c2[n-]c(c1C)/C=c1\[n-]/c(c(C)c1C=C)=C\c1[n-]c(c(CCC(=O)O)c1C)C=c1[n-]/c(c(C)c1CCC(=O)O)=C\2.[Sn+4] [Sn-Protoporphyrin IX, tin protoporphyrin IX]",33.5,18.0,Inhibition of the reaction between V3 loop peptides and homologous antibodies [1]: inhibited; Inhibition of binding of mAb 588D to gp120 [2]: blocked in a concentration dependent manner; Inhibition of binding of CD4-binding-site mAbs to gp120 lacking the V3 loop [3]: not observed; Inhibition of HIV-1 infection (in words) (HIV-1; compared with metal-free PTP-IX): effectively inhibited HIV-1 infection at considerably lower concentrations than did metal-free PTP-IX
C=CC1=C(C)c2cc3[n-]c(cc4[n-]c(cc5nc(cc1n2)C(C)=C5C=C)c(C)c4CCC(=O)O)c(CCC(=O)O)c3C.[Zn+2] [Zn-Protoporphyrin IX],>3.1,–,ED50 values relative to Sn-PTP-IX (times higher) [4]: approximately 50 times
tin mesoporphyrin IX [Sn-Mesoporphyrin IX],>5.6,>20,–
